Laboratory results taken from patent publication US20230085307A1, “PYRIDAZINONE COMPOUND AND HERBICIDE” (NISSAN CHEMICAL CORPORATION, priority 2019, published 2023).

Legend:
[1] = system: late watergrass; experiment: Test Example 1: herbicidal activity, application before weed generation under submerged conditions (Table 16, symbol A); assay type: in vivo, late watergrass (Echinochloa oryzicola); details: amount of applied herbicide 320 g/ha
Outline: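 Emulsion formulation, water-diluted to set dose, was put onto the flooded surface (4 cm depth, alluvial soil) the same day weeds were sown and 2.5-leaf rice transplanted. After 3 weeks at 25-30 °C under glass, each species was rated 0 (≤5% kill) to 5 (≥90% kill).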

[2] = system: late watergrass; experiment: Test Example 2: herbicidal activity, application during weed generation under submerged conditions (Table 17, symbol A); assay type: in vivo, late watergrass (Echinochloa oryzicola); details: AAH 320 g/ha; application during weed generation, submerged conditions
Outline: (§1)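 Wagner pot, alluvial soil, 4 cm flood; mixed sowing of all species; greenhouse 25° C.–30° C. Emulsifiable formulation, water-diluted to predetermined dose, applied to paddy water at 1–2 leaf stage. Effect rated at 3 wk using the earlier test's scoring criteria.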

[3] = system: oval-leafed pondweed; experiment: Test Example 2: herbicidal activity, application during weed generation under submerged conditions (Table 17, symbol C); assay type: in vivo, oval-leafed pondweed (Monochoria vaginalis); details: AAH 320 g/ha; application during weed generation, submerged conditions
Outline: as §1

[4] = system: barnyard grass; experiment: Test Example 3: herbicidal effect by foliage application, Wagner pot (Table 18, symbol H); assay type: in vivo, barnyard grass (Echinochloa crus-galli); details: 320 g/ha
Outline: (§2)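 Plants were sown in alluvial soil held under 0.1–0.5 cm standing water and grown 14 days in a greenhouse at 25–30 °C. An emulsifiable formulation, water-diluted to the set dose, was then sprayed onto the foliage, and effects were scored three weeks later using previously defined criteria.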

[5] = system: Chinese sprangletop; experiment: Test Example 3: herbicidal effect by foliage application, Wagner pot (Table 18, symbol D); assay type: in vivo, chinese sprangletop (Leptochloa chinensis); details: 320 g/ha
Outline: as §2

[6] = system: green foxtail; experiment: Test Example 4: herbicidal effect by soil treatment (Table 19, symbol G); assay type: in vivo, green foxtail (Setaria viridis); details: amount of applied herbicide 320 g/ha
Outline: (§3)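 Pre-emergence style soil spray: seeds under ~1.5 cm sterilized diluvial soil received a uniform coat of emulsion diluted to the predetermined herbicide amount. Greenhouse 25–30° C; readout at week three on previously defined criteria.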

[7] = system: windgrass; experiment: Test Example 4: herbicidal effect by soil treatment (Table 19, symbol L); assay type: in vivo, windgrass (Apera spica-venti); details: amount of applied herbicide 320 g/ha
Outline: as §3

[8] = system: velvetleaf; experiment: Test Example 4: herbicidal effect by soil treatment (Table 19, symbol M); assay type: in vivo, velvetleaf (Abutilon theophrasti); details: amount of applied herbicide 320 g/ha
Outline: as §3

[9] = system: redroot pigweed; experiment: Test Example 4: herbicidal effect by soil treatment (Table 19, symbol N); assay type: in vivo, redroot pigweed (Amaranthus retroflexus); details: amount of applied herbicide 320 g/ha
Outline: as §3

[10] = system: false cleavers; experiment: Test Example 4: herbicidal effect by soil treatment (Table 19, symbol Q); assay type: in vivo, false cleavers (Galium spurium); details: amount of applied herbicide 320 g/ha
Outline: as §3

[11] = system: green foxtail; experiment: Test Example 5: herbicidal effect by foliage application, plastic box (Table 20, symbol G); assay type: in vivo, green foxtail (Setaria viridis); details: foliage application, 320 g/ha, three weeks after application
Outline: (§4)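 Plants were sown into sterilized diluvial soil under about 1.5 cm cover and kept in a greenhouse at 25° C. to 30° C. Fourteen days on, foliage received an even spray of the diluted emulsion. Herbicidal or crop effect was judged three weeks afterwards.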

[12] = system: barnyard grass; experiment: Test Example 5: herbicidal effect by foliage application, plastic box (Table 20, symbol H); assay type: in vivo, barnyard grass (Echinochloa crus-galli); details: foliage application, 320 g/ha, three weeks after application
Outline: as §4

[13] = system: wild oat; experiment: Test Example 5: herbicidal effect by foliage application, plastic box (Table 20, symbol I); assay type: in vivo, wild oat (Avena fatua); details: foliage application, 320 g/ha, three weeks after application
Outline: as §4

[14] = system: windgrass; experiment: Test Example 5: herbicidal effect by foliage application, plastic box (Table 20, symbol L); assay type: in vivo, windgrass (Apera spica-venti); details: foliage application, 320 g/ha, three weeks after application
Outline: as §4

[15] = system: velvetleaf; experiment: Test Example 5: herbicidal effect by foliage application, plastic box (Table 20, symbol M); assay type: in vivo, velvetleaf (Abutilon theophrasti); details: foliage application, 320 g/ha, three weeks after application
Outline: as §4

[16] = system: redroot pigweed; experiment: Test Example 5: herbicidal effect by foliage application, plastic box (Table 20, symbol N); assay type: in vivo, redroot pigweed (Amaranthus retroflexus); details: foliage application, 320 g/ha, three weeks after application
Outline: as §4

[17] = system: lambsquarters; experiment: Test Example 5: herbicidal effect by foliage application, plastic box (Table 20, symbol O); assay type: in vivo, lambsquarters (Chenopodium album); details: foliage application, 320 g/ha, three weeks after application
Outline: as §4

Question: Which results are given for COc1cc(F)ccc1-c1sc2cc(C)ccc2c1-c1c(O)c(C)nn(C)c1=O [3-055]?
Answer: Herbicidal effect, A: late watergrass [1]: 4 (Herbicidal rate of 70% or more and less than 90%); herbicidal effect rating, A: late watergrass [2]: 1 (Herbicidal rate of 5% or more and less than 20%); herbicidal effect rating, C: oval-leafed pondweed [3]: 3 (Herbicidal rate of 40% or more and less than 70%); herbicidal effect on barnyard grass (H) [4]: 5 (Herbicidal rate of 90% or more (almost completely withered)); herbicidal effect on Chinese sprangletop (D) [5]: 4 (Herbicidal rate of 70% or more and less than 90%); G: green foxtail, herbicidal effect grade [6]: 0 (Herbicidal rate of 5% or less (almost no effect)); L: windgrass, herbicidal effect grade [7]: 2 (Herbicidal rate of 20% or more and less than 40%); M: velvetleaf, herbicidal effect grade [8]: 0 (Herbicidal rate of 5% or less (almost no effect)); N: redroot pigweed, herbicidal effect grade [9]: 0 (Herbicidal rate of 5% or less (almost no effect)); Q: false cleavers, herbicidal effect grade [10]: 3 (Herbicidal rate of 40% or more and less than 70%); G: green foxtail, herbicidal effect grade [11]: 5 (Herbicidal rate of 90% or more (almost completely withered)); H: barnyard grass, herbicidal effect grade [12]: 4 (Herbicidal rate of 70% or more and less than 90%); I: wild oat, herbicidal effect grade [13]: 5 (Herbicidal rate of 90% or more (almost completely withered)); L: windgrass, herbicidal effect grade [14]: 5 (Herbicidal rate of 90% or more (almost completely withered)); M: velvetleaf, herbicidal effect grade [15]: 5 (Herbicidal rate of 90% or more (almost completely withered)); N: redroot pigweed, herbicidal effect grade [16]: 5 (Herbicidal rate of 90% or more (almost completely withered)); O: lambsquarters, herbicidal effect grade [17]: 5 (Herbicidal rate of 90% or more (almost completely withered))

Question: For CCCC(=O)Oc1c(C)nn(C)c(=O)c1-c1c(-c2ccccc2OCC)sc2cc(OC)ccc12 [3-071], which “Herbicidal effect, A: late watergrass” value [1] is on record?
Answer: 5 (Herbicidal rate of 90% or more (almost completely withered))

Question: What about the “herbicidal effect rating, A: late watergrass” value [2] of the same compound?
Answer: 5 (Herbicidal rate of 90% or more (almost completely withered))

Question: What about the “herbicidal effect rating, C: oval-leafed pondweed” value [3] of the same compound?
Answer: 5 (Herbicidal rate of 90% or more (almost completely withered))

Question: What about the “herbicidal effect on barnyard grass (H)” value [4] of the same compound?
Answer: 5 (Herbicidal rate of 90% or more (almost completely withered))

Question: And the “herbicidal effect on Chinese sprangletop (D)” value [5]?
Answer: 5 (Herbicidal rate of 90% or more (almost completely withered))

Question: What about the “G: green foxtail, herbicidal effect grade” value [6] of the same compound?
Answer: 4 (Herbicidal rate of 70% or more and less than 90%)

Question: What about the “L: windgrass, herbicidal effect grade” value [7] of the same compound?
Answer: 4 (Herbicidal rate of 70% or more and less than 90%)

Question: And the “M: velvetleaf, herbicidal effect grade” value [8]?
Answer: 1 (Herbicidal rate of 5% or more and less than 20%)

Question: What about the “N: redroot pigweed, herbicidal effect grade” value [9] of the same compound?
Answer: 4 (Herbicidal rate of 70% or more and less than 90%)

Question: What about the “Q: false cleavers, herbicidal effect grade” value [10] of the same compound?
Answer: 5 (Herbicidal rate of 90% or more (almost completely withered))

Question: What about the “G: green foxtail, herbicidal effect grade” value [11] of the same compound?
Answer: 5 (Herbicidal rate of 90% or more (almost completely withered))

Question: What about the “H: barnyard grass, herbicidal effect grade” value [12] of the same compound?
Answer: 5 (Herbicidal rate of 90% or more (almost completely withered))

Question: What about the “I: wild oat, herbicidal effect grade” value [13] of the same compound?
Answer: 5 (Herbicidal rate of 90% or more (almost completely withered))

Question: What about the “L: windgrass, herbicidal effect grade” value [14] of the same compound?
Answer: 5 (Herbicidal rate of 90% or more (almost completely withered))

Question: What about the “M: velvetleaf, herbicidal effect grade” value [15] of the same compound?
Answer: 5 (Herbicidal rate of 90% or more (almost completely withered))

Question: What about the “N: redroot pigweed, herbicidal effect grade” value [16] of the same compound?
Answer: 5 (Herbicidal rate of 90% or more (almost completely withered))

Question: What about the “O: lambsquarters, herbicidal effect grade” value [17] of the same compound?
Answer: 5 (Herbicidal rate of 90% or more (almost completely withered))
